Results published in patent publication EP0429333B1, “Process for producing oxazopyrroloquinolines, novel oxazopyrroloquinolines, and use of oxazopyrroloquinolines” (priority 1989, dated 1991).

How the values were obtained:
kidney = test: Toxicity to kidney determined by blood examination; assay type: in vivo, mice
Protocol: After one day from administration, the mice were fasted (only water was given) and after lapse of 18 hours, blood was collected and serum was obtained therefrom. Glucose, urea nitrogen and creatinine in the serum were examined using FUJI Dry Chemslide (manufactured by Fuji Photo Film Co., Ltd.). […]
Thereafter, the mice were fasted (with giving only water) and after lapse of 18 hours, blood was collected and serum was obtained therefrom. Contents of glucose, urea nitrogen and creatinine in serum were obtained using FUJI Dry Chemslide. The results were shown by average value for eight mice.

male SPF-ICR mice = test: in vivo
Protocol: (§1) (1) Acute toxicity test: • (i) To male SPF-ICR mice of 5 weeks old (supplied by Charles River Co.) were intraperitoneally administered PQQ·2Na and OPQs in the dosages of 20, 40, 80, 160 and 200 mg/kg body weight of mouse, respectively and they were bred at 25°C for 14 days. OPQ, 1-methylpropyl OPQ, 2-methylthioethyl OPQ, and benzyl OPQ were used as the OPQs. One group consisted of 8 mice. […] One group consisted of 8 mice. […] They were bred at 25°C for 14 days. One group consisted of eight mice. […] (2) Toxicity to kidney (i) Toxicity to kidney determined by urine examination: In the same manner as in the acute toxicity test, PQQ·2Na and OPQs were respectively intraperitoneally administered to mice and these mice were bred. Urine was collected every day and concentration of glucose in urine was obtained using Uristex II (manufactured by Miles·Sankyo Co.). […]

[1] = target: T1, aldose reductase of rabbit lens (Oryctolagus cuniculus, UniProt P15122); test: Inhibitory effect on aldose reductase of lens; assay type: biochemical; conditions: read-out: Degree of inhibition for aldose reductase (%)
T1 construct: to obtain electrophoretically homogeneous aldose reductase; from tissue; host or cells: rabbit lens
Protocol: (§2) 0.05 ml of 3mM NADPH, 0.1 ml of DL-glyceraldehyde and 0.04 ml of distilled water were added to 0.8 ml of 0.1M phosphoric acid buffer (pH 6.2) and left to stand at 25°C for 3 minutes. Then, 0.01 ml of the aldose reductase solution was added thereto to start reaction and decreasing of absorbance of 340 nm was measured at 25°C with time. Amount of enzyme which consumes 1 µmole of NADPH for 1 minute was taken as 1 unit.
Enzyme activity was measured under the same conditions as in the above measurement of aldose reductase activity except that 0.04 ml of aqueous solution of inhibitory substance in various concentrations was added in place of 0.04 ml of distilled water and degree of inhibition was calculated from comparison of the enzyme activity with the enzyme activity obtained in the absence of inhibitor. (1) OPQ, (2) methyl OPQ, (3) 1-methylpropyl OPQ, (4) 2-methylpropyl OPQ, (5) 2-carbamoylethyl OPQ, (6) hydroxymethyl OPQ, (7) 2-methylthioethyl OPQ, (8) 2-carboxyethyl OPQ, (9) 4-hydroxybenzyl OPQ, (10) 1-methylethyl OPQ, and (11) benzyl OPQ were used as inhibition substances and (12) PQQ was used as control.
Lens of rabbit was homogenized with 10mM phosphoric acid buffer (pH 7.0) containing 2mM dithiothreitol in an amount of two times the volume of the lens and subjected to centrifugation. The supernatant liquid was purified by affinity chromatography, gel filtration and chromatofocusing to obtain electrophoretically homogeneous aldose reductase. Using (1) OPQ, (2) 1-methylpropyl OPQ, (3) 2-methylpropyl OPQ, (4) hydroxymethyl OPQ, and (5) 1-methylethyl OPQ as inhibition substances, degree of inhibition of these substances for aldose reductase of rabbit lens was examined in the same manner in Example 32.

[2] = Solubility of the isolated compound, described in words; assay type: physicochemical; conditions: for solubility in water / solubility under neutral and alkaline conditions: water
[3] = test system: carbon tetrachloride (CCl4)-induced liver diseases; test: Pharmacological activity on carbon tetrachloride-induced liver diseases; assay type: in vivo, SD rats; conditions: 5mg/kg rat twice, CCl4 1 ml/kg rat; for Total bilirubin: Table 27: CCl4 only 1.2, no administration 0.5; for GPT: Table 27: CCl4 only 818, no administration 16; for GOT: Table 27: CCl4 only 3308, no administration 144
[4] = target: aldose reductase of kidney (Canis lupus familiaris, UniProt A0A8I3P2L6); test: Inhibitory effect on aldose reductase of kidney; assay type: biochemical, dog; conditions: read-out: Degree of inhibition for aldose reductase (%); for inhibition at 0.5 µM: concentration 5x10^-7 M; for inhibition at 1 µM: concentration 1x10^-6 M; for inhibition at 2 µM: concentration 2x10^-6 M; for inhibition at 5 µM: concentration 5x10^-6 M
Protocol: as §2, with “Medulla of kidney of dog was homogenized with 10mM phosphoric acid buffer (pH 7.0) containing 2mM dithiothreitol in an amount of four times the volume of kidney medulla and subjected to centrifugation. The supernatant liquid was purified by affinity chromatography, gel filtration and chromatofocusing to obtain electrophoretically homogeneous aldose reductase. 0.05” for “0.05”

in vivo = conditions: mouse, in vivo, ip
Protocol: as §1

cataract = test: Anti-cataract effect, intraperitoneal administration, 50 % galactose fed rats; assay type: in vivo, Sprague-Davley rats; conditions: for Body weight (average): 20mg/kg rat intraperitoneally once a day
Protocol: Eightyfour male Sprague-Davley rats (supplied from Japan Charles Liver Co.) of four weeks old and having a body weight of 70 - 80 g were used and the following experiments were conducted. One group consisted of six rats.
The groups included normal group, 50 % galactose administration group, PQQ administration group, and OPQ administration group. Commercially available feeding stuff (manufactured by Japan Clea Co.) was given to the rats of normal group, and rats of 50 % galactose administration group, PQQ administration group and OPQ administration group were allowed to freely take powdery feeding stuff comprising a mixture of the above-mentioned commercially available powder feeding stuff and D-galactose for food additive in equal weight.
To the rats of PQQ and OPQ administration groups were intraperitoneally administered PQQ·2Na or OPQ in a dosage of 2 mg, 5 mg, 10 mg and 20 mg per 1 kg of rat once a day simultaneously with starting of galactose feeding and until termination of feeding.
On the 6th day and the 9th day from starting of experiment, eyeball was observed by stereoscopic microscope and judgment on cataract was made according to the following criteria. A0: No muddiness (normal) A1: Light white muddiness in the surface portion. A2: A slight heavy white muddiness in the surface portion. A3: Heavy white muddiness in the surface portion. A4: Heavy white muddiness in the surface portion and a slight white muddiness in the core portion. A5: Heavy white muddiness in the surface portion and the core portion.

[5] = serum, 40 mg/kg mouse intraperitoneally, Table 2, no administration 0.8
[6] = serum, 40 mg/kg mouse intraperitoneally, Table 2, no administration 24
[7] = serum, 40 mg/kg mouse intraperitoneally, Table 2, no administration 78
[8] = serum, 80 mg/kg mouse intraperitoneally, Table 2, no administration 0.8
[9] = serum, 80 mg/kg mouse intraperitoneally, Table 2, no administration 24
[10] = serum, 80 mg/kg mouse intraperitoneally, Table 2, no administration 78
[11] = serum, 160 mg/kg mouse intraperitoneally, Table 2, no administration 0.8
[12] = serum, 160 mg/kg mouse intraperitoneally, Table 2, no administration 24
[13] = serum, 160 mg/kg mouse intraperitoneally, Table 2, no administration 78
[14] = serum, 200 mg/kg mouse intraperitoneally, Table 2, no administration 0.8
[15] = serum, 200 mg/kg mouse intraperitoneally, Table 2, no administration 24
[16] = serum, 200 mg/kg mouse intraperitoneally, Table 2, no administration 78

Row | Compound | Creatinine (kidney; [5]) [mg/dL] | Urea nitrogen (kidney; [6]) [mg/dL] | Glucose (kidney; [7]) [mg/dL] | Creatinine (kidney; [8]) [mg/dL] | Urea nitrogen (kidney; [9]) [mg/dL] | Glucose (kidney; [10]) [mg/dL] | Creatinine (kidney; [11]) [mg/dL] | Urea nitrogen (kidney; [12]) [mg/dL] | Glucose (kidney; [13]) [mg/dL] | Creatinine (kidney; [14]) [mg/dL] | Urea nitrogen (kidney; [15]) [mg/dL] | Glucose (kidney; [16]) [mg/dL] | death of mice (male SPF-ICR mice; mouse, in vivo) | solubility in acetone and diethyl ether [2] | solubility in lower alcohols [2] | solubility in water [2] | solubility under neutral and alkaline conditions [2] | Total bilirubin [3] [mg/dL] | GPT [3] [U/l] | GOT [3] [U/l] | also measured
1 | CCC(C)c1nc2c3nc(C(=O)O)cc(C(=O)O)c3c3[nH]c(C(=O)O)cc3c2o1 (stereo not shown) [1-Methylpropyl OPQ, 5-(1-Methylpropyl)-2,8,10-tricarboxy-1H-oxazo[5,4-h]-pyrrolo[2,3-f]quinoline] | 0.8 | 26 | 87 | 0.8 | 22 | 104 | 0.8 | 27 | 87 | 0.8 | 27 | 66 | no mice died | did not dissolve | dissolved | easily soluble | very easily soluble | 0.7 | 182 | 887 | inhibition at 1 µM ([1]; concentration 1x10^-6 M): 64.7%; inhibition at 0.1 µM ([1]; concentration 1x10^-7 M): 24%; inhibition at 0.2 µM ([1]; concentration 2x10^-7 M): 36.4%; inhibition at 0.5 µM ([1]; concentration 5x10^-7 M): 50.8%; inhibition at 0.1 µM ([4]; concentration 1x10^-7 M): 32.6%; inhibition at 0.2 µM ([4]; concentration 2x10^-7 M): 45.9%; inhibition at 0.5 µM [4]: 61.7%
2 | CSCCc1nc2c3nc(C(=O)O)cc(C(=O)O)c3c3[nH]c(C(=O)O)cc3c2o1 [2-Methylthioethyl OPQ, 5-(2-Methylthioethyl)-2,8,10-tricarboxy-1H-oxazo-[5,4-h]-pyrrolo[2,3-f]quinoline] | 0.8 | 26 | 96 | 0.7 | 26 | 88 | 0.6 | 26 | 97 | 0.7 | 26 | 72 | no mice died | did not dissolve | dissolved | easily soluble | especially soluble | 0.7 | 157 | 693 | inhibition at 10 µM ([4]; concentration 1x10^-5 M): 83%; inhibition at 1 µM [4]: 42%; inhibition at 2 µM [4]: 54.9%; inhibition at 5 µM [4]: 81.8%; inhibition at 0.5 µM [4]: 24.3%
3 | O=C(O)c1cc(C(=O)O)c2c(n1)c1nc(Cc3ccccc3)oc1c1cc(C(=O)O)[nH]c12 [Benzyl OPQ, 5-Benzyl-2,8,10-tricarboxy-1H-oxazo[5,4-h]-pyrrolo-[2,3-f]-quinoline] | 0.7 | 23 | 90 | 0.7 | 23 | 87 | 0.7 | 26 | 87 | 0.7 | 25 | 84 | no mice died | did not dissolve | dissolved | easily soluble | especially soluble | 0.7 | 233 | 993 | inhibition at 1 µM [4]: 35.7%; inhibition at 2 µM [4]: 46.4%; inhibition at 5 µM [4]: 63.3%
4 | O=C(O)c1cc(C(=O)O)c2c(n1)C(=O)C(=O)c1cc(C(=O)O)[nH]c1-2 [PQQ·2Na, reference compound] |  |  |  |  |  |  |  |  |  |  |  |  | the mice survived |  |  |  |  |  |  |  | Creatinine (kidney; mouse, in vivo, ip, 20 mg/kg): 0.8 mg/dL; Glucose (kidney; mouse, in vivo, ip, 20 mg/kg): 70 mg/dL; Urea nitrogen (kidney; mouse, in vivo, ip, 20 mg/kg): 25 mg/dL; Creatinine (kidney; mouse, in vivo, ip, 40 mg/kg): 2.3 mg/dL; Glucose (kidney; mouse, in vivo, ip, 40 mg/kg): 60 mg/dL; Urea nitrogen (kidney; mouse, in vivo, ip, 40 mg/kg): 110 mg/dL; Creatinine (kidney; mouse, in vivo, ip, 80 mg/kg): 3.4 mg/dL; Glucose (kidney; mouse, in vivo, ip, 80 mg/kg): 57 mg/dL; Urea nitrogen (kidney; mouse, in vivo, ip, 80 mg/kg): 130 mg/dL; Creatinine (kidney; mouse, in vivo, ip, 160 mg/kg): 4.2 mg/dL; Glucose (kidney; mouse, in vivo, ip, 160 mg/kg): 35 mg/dL; Urea nitrogen (kidney; mouse, in vivo, ip, 160 mg/kg): 139 mg/dL; LD50 at 336 h (in vivo): ~70 mg/kg; death of mice (male SPF-ICR mice; 80 mg intraperitoneally, 8 mice, 14 days): five mice died; death of mice (male SPF-ICR mice; 160 mg and 200 mg intraperitoneally, 8 mice, 14 days): all of eight mice died; body weight (cataract; 10 mg and 20 mg/kg rat intraperitoneally once a day): reduction in body weight was recognized; Body weight (average) (cataract; 6th day, normal group about 115 g): * Body weight reduced (average 66 g). Body weight of rats of normal group was about 115 g on the average.; Body weight (average) (cataract; 9th day, normal group about 141 g): ** Body weight did not increase (average 77 g). Body weight of rats of normal group was about 141 g on the average.
